# Literature values as cited in patent US10463673B2, “Nanoparticulate meloxicam formulations” (Recro Pharma, Inc., priority 2003, dated 2019).
# Like-named read-outs stand apart in the source and are kept apart here.
# Experiments:
# [1] = oral; for Cmax, mean (% CV) / tmax, mean (% CV): 15 mg capsules
# [2] = Single dose, hepatic insufficiency (Fasted)
# [3] = Single dose, renal failure (Fasted)
# [4] = Steady state, elderly females (Fed)
# [5] = Steady state, elderly males (Fed)
smiles,measurement,setting,value
"Cc1cnc(NC(=O)C2=C(O)c3ccccc3S(=O)(=O)N2C)s1 [Meloxicam, 4-hydroxy-2-methyl-N-(5-methyl-2-thiazolyl)-2-H-1,2-benzothiazine-3-carboxamide 1,1-dioxide]","Cmax, mean (% CV)",[1]; [2],0.84 (29) μg/mL
same,"tmax, mean (% CV)",[1]; [2],10 (87) h
same,"Cmax, mean (% CV)",[1]; [3],0.59 (36) μg/mL
same,"tmax, mean (% CV)",[1]; [3],4 (65) h
same,"Cmax, mean (% CV)",[1]; [4],3.2 (24) μg/mL
same,"tmax, mean (% CV)",[1]; [4],6 (27) h
same,"Cmax, mean (% CV)",[1]; [5],2.3 (59) μg/mL
same,"tmax, mean (% CV)",[1]; [5],5 (12) h
same,time of second meloxicam concentration peak post-dose,[1]; fasted steady state conditions,twelve to fourteen
same,COX-2/COX-1 inhibition ratio,COX-2,0.09
same,solubility in methanol,methanol,very slightly soluble
same,solubility in strong acids and bases,"strong acids and bases, compared with water",higher solubility
same,solubility in water,water,practically insoluble
